These results are taken from ChEMBL document CHEMBL3351760, “Homology modeling and explicit membrane molecular dynamics simulation to delineate the mode of binding of thiazolidinediones into FFAR1 and the mechanism of receptor activation” (Bioorg Med Chem Lett, 2014).

For this test, the target named is Free fatty acid receptor 1 (Homo sapiens, UniProt O14842). Put plainly: Agonist activity at FFAR1 (unknown origin) assessed as increase in ERK1/2 MAP kinase phosphorylation.
Chain of Free fatty acid receptor 1 (O14842 whole entry): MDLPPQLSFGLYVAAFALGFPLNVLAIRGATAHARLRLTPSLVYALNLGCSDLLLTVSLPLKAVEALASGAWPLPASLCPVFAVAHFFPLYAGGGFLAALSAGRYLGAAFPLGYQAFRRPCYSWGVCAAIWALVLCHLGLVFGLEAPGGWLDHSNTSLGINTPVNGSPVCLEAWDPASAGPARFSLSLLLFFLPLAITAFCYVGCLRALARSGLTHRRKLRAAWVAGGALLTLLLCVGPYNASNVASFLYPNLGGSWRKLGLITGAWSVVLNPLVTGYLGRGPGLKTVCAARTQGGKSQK
For orientation: EC50 means the concentration at which the effect is half-maximal. On to `O=C(O)CCc1ccc(NCc2cccc(Oc3ccccc3)c2)cc1` [GW9508], for which the EC50 was 0.316 µM.

Take `CCc1ccc(CCOc2ccc(CC3SC(=O)NC3=O)cc2)nc1` (stereo not drawn) [PIOGLITAZONE]: the EC50 was 813 µM.

Take `CN(CCOc1ccc(CC2SC(=O)NC2=O)cc1)c1ccccn1` (stereo not drawn) [ROSIGLITAZONE]: the EC50 is 11.5 µM.
